Laboratory results as given in article doi:10.1101/2024.08.13.607785v1 (biorxiv, 2024).
Where two headings read alike, the source gives them in different places.

What was measured:
Assay in all cases: biochemical
Design in all cases: species or system human cell line lysate
[1] = biological target: Serine/threonine-protein kinase TAO2 ; TAOK2 ; Q9UL54 (Homo sapiens, UniProt Q9UL54)
[2] = biological target: Serine/threonine-protein kinase Nek9 ; NEK9 ; Q8TD19 (Homo sapiens, UniProt Q8TD19)
[3] = biological target: Serine/threonine-protein kinase Chk1 ; CHEK1 ; O14757 (Homo sapiens, UniProt O14757)
[4] = biological target: Isoform 2 of 5'-AMP-activated protein kinase catalytic subunit alpha-1 ; PRKAA1 ; Q13131-2 (Homo sapiens, UniProt Q13131)
[5] = biological target: RAC-alpha serine/threonine-protein kinase ; AKT1 ; P31749 (Homo sapiens, UniProt P31749)
[6] = biological target: Calcium/calmodulin-dependent protein kinase type II subunit delta ; CAMK2D ; Q13557 (Homo sapiens, UniProt Q13557)
[7] = biological target: Interferon-induced, double-stranded RNA-activated protein kinase ; EIF2AK2 ; P19525 (Homo sapiens, UniProt P19525)
[8] = biological target: Isoform GRK6B of G protein-coupled receptor kinase 6 ; GRK6 ; P43250-2 (Homo sapiens, UniProt P43250)
[9] = biological target: Serine/threonine-protein kinase/endoribonuclease IRE1 ; ERN1 ; O75460 (Homo sapiens, UniProt O75460)
[10] = biological target: Adenylate kinase isoenzyme 6 ; AK6 ; Q9Y3D8 (Homo sapiens, UniProt Q9Y3D8)
[11] = biological target: Tyrosine-protein kinase FRK ; FRK ; P42685 (Homo sapiens, UniProt P42685)
[12] = biological target: Serine/threonine-protein kinase D2 ; PRKD2 ; Q9BZL6 (Homo sapiens, UniProt Q9BZL6)
[13] = biological target: Serine/threonine-protein kinase Nek3 ; NEK3 ; P51956 (Homo sapiens, UniProt P51956)
[14] = biological target: SNF-related serine/threonine-protein kinase ; SNRK ; Q9NRH2 (Homo sapiens, UniProt Q9NRH2)
[15] = biological target: Receptor-type tyrosine-protein kinase FLT3 ; FLT3 ; P36888 (Homo sapiens, UniProt P36888)
[16] = biological target: T1, Dual specificity mitogen-activated protein kinase kinase 3 ; MAP2K3 ; P46734 (Homo sapiens, UniProt P46734)
T1 sequence (P46734 1-347): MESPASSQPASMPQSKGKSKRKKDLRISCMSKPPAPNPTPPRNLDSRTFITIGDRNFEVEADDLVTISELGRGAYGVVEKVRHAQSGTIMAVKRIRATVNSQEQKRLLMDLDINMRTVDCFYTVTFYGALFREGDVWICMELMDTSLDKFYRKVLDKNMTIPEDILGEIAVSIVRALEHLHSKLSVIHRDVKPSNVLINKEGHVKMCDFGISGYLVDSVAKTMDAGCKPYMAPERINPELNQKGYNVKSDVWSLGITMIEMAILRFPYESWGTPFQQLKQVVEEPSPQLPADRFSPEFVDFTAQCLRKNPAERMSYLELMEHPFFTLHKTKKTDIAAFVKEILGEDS

[17] = biological target: Serine/threonine-protein kinase TAO1 ; TAOK1 ; Q7L7X3 (Homo sapiens, UniProt Q7L7X3)
[18] = biological target: Beta-adrenergic receptor kinase 1 ; GRK2 ; P25098 (Homo sapiens, UniProt P25098)
[19] = biological target: Rho-associated protein kinase 2 ; ROCK2 ; O75116 (Homo sapiens, UniProt O75116)
[20] = biological target: Serine/threonine-protein kinase TAO3 ; TAOK3 ; Q9H2K8 (Homo sapiens, UniProt Q9H2K8)
[21] = biological target: Serine/threonine-protein kinase PLK1 ; PLK1 ; P53350 (Homo sapiens, UniProt P53350)
[22] = read-out: BAY-1143572 (10 µM) / %Intensity relative to DMSO
[23] = read-out: BAY-1251152 (10 µM) / %Intensity relative to DMSO

Serine/threonine-protein kinase Nek3 ; NEK3 ; P51956, sequence (P51956 whole entry, one chain of several): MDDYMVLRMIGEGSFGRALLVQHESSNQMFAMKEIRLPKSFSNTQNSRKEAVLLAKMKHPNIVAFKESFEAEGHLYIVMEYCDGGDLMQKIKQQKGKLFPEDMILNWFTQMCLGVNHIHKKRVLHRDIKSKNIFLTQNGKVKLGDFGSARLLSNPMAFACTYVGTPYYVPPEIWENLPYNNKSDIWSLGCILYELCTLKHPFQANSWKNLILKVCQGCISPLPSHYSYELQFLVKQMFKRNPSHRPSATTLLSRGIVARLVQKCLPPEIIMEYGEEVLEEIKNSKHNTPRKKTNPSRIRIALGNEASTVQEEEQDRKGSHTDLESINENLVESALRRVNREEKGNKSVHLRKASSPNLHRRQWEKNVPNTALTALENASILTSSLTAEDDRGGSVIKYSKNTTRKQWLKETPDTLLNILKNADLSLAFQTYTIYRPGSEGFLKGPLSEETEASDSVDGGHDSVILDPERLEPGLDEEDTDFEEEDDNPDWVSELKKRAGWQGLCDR
Serine/threonine-protein kinase PLK1 ; PLK1 ; P53350, sequence (P53350 whole entry, one chain of several): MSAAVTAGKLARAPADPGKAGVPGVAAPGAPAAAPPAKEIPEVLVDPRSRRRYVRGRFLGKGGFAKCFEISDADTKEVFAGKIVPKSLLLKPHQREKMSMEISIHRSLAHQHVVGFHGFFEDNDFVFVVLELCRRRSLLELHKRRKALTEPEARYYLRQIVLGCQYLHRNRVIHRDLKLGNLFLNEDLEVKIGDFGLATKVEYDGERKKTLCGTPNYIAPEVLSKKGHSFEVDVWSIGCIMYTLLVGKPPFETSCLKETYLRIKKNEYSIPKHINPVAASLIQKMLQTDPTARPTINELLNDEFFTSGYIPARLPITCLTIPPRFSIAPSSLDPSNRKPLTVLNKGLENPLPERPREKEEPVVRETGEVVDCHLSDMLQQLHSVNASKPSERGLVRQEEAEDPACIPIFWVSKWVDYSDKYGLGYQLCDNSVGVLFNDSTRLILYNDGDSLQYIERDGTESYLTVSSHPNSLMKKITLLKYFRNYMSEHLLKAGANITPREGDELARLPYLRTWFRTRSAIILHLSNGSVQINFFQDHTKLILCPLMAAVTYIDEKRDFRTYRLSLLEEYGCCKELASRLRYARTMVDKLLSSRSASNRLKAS
Serine/threonine-protein kinase Chk1 ; CHEK1 ; O14757, sequence (O14757 whole entry, canonical isoform, one chain of several): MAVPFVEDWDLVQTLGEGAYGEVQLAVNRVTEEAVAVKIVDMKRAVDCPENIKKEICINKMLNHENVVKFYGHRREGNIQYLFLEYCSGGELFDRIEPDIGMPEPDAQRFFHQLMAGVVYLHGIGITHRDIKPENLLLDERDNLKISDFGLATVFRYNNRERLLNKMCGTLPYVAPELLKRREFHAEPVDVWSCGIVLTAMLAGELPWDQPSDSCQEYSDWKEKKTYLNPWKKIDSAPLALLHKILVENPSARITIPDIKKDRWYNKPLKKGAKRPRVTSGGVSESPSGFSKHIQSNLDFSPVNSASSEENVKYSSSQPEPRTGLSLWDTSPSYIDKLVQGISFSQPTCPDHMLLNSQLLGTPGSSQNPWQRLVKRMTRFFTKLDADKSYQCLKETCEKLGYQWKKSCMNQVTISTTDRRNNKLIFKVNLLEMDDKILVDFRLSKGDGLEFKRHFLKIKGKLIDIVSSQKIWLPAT
Serine/threonine-protein kinase D2 ; PRKD2 ; Q9BZL6, sequence (Q9BZL6 whole entry, one chain of several): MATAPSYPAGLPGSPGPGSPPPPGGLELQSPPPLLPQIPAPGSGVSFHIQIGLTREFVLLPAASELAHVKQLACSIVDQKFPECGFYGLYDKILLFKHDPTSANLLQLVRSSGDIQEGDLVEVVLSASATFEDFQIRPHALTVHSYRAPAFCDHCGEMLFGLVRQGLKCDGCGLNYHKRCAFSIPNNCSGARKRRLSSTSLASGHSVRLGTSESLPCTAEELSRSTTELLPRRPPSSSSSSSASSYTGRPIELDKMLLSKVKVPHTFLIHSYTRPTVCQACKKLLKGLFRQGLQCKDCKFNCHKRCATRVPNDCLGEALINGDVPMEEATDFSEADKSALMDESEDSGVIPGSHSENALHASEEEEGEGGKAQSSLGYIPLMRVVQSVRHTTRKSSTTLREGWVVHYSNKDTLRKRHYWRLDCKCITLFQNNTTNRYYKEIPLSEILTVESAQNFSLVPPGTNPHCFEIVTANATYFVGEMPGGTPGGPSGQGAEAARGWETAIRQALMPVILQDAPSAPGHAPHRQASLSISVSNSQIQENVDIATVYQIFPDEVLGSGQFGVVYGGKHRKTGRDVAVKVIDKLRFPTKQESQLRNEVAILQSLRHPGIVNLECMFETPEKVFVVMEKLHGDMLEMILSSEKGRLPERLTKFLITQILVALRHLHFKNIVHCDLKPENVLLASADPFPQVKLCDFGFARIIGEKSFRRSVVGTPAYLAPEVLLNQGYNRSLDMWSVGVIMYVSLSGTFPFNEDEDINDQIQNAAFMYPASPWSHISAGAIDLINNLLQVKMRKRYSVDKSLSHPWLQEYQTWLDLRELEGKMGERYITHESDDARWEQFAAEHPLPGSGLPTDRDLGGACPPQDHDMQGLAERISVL
Adenylate kinase isoenzyme 6 ; AK6 ; Q9Y3D8, sequence (Q9Y3D8 whole entry): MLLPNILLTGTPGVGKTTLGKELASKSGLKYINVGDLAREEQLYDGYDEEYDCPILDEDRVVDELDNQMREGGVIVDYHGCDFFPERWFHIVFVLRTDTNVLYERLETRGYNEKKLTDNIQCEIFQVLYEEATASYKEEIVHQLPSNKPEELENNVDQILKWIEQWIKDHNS
Serine/threonine-protein kinase TAO3 ; TAOK3 ; Q9H2K8, sequence (Q9H2K8 whole entry, one chain of several): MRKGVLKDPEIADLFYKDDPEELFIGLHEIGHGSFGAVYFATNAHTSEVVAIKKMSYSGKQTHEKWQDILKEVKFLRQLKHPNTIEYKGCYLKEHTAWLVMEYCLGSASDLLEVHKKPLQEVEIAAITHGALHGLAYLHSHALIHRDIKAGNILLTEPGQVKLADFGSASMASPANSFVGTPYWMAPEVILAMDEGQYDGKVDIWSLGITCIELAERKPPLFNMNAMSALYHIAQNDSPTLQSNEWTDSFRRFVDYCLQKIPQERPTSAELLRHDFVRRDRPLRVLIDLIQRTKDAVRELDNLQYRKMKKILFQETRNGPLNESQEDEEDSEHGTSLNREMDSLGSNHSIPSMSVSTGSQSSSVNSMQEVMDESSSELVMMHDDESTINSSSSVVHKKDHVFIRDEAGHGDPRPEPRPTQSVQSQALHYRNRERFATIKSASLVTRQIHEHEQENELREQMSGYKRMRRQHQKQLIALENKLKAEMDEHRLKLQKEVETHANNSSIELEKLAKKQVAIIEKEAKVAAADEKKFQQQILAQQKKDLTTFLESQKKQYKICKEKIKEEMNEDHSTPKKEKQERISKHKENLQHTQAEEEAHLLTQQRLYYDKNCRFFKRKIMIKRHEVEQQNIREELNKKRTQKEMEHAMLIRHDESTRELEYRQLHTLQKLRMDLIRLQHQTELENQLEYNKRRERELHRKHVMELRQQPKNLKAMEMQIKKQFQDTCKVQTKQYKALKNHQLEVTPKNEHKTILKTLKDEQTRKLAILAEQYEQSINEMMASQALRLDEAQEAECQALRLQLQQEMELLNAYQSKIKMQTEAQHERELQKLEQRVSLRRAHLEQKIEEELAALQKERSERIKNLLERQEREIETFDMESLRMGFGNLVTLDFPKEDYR
Serine/threonine-protein kinase Nek9 ; NEK9 ; Q8TD19, sequence (Q8TD19 whole entry, one chain of several): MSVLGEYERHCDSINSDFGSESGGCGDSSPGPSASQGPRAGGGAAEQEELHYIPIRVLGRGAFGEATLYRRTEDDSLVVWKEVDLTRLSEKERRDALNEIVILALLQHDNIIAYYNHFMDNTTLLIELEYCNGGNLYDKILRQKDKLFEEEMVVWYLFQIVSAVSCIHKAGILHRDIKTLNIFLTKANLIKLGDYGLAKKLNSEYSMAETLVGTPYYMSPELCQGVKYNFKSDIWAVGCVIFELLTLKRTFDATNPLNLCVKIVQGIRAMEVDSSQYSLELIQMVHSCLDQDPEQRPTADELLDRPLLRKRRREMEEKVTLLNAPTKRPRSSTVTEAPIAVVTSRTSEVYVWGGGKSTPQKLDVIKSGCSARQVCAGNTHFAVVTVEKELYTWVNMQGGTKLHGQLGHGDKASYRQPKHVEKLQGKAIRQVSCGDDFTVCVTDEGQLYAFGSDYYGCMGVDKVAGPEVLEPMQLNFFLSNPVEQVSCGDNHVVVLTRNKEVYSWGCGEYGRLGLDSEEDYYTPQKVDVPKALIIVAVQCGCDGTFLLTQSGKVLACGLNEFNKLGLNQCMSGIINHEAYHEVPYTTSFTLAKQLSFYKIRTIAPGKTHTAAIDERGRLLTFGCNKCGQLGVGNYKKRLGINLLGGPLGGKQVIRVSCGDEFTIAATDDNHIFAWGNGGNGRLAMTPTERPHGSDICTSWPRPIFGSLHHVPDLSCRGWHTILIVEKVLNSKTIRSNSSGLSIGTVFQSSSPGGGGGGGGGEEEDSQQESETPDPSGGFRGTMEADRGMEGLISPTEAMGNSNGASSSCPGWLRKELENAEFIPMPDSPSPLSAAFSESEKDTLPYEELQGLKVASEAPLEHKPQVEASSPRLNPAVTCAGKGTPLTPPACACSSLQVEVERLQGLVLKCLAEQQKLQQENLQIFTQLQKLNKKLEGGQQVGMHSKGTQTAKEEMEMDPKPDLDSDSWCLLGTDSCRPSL
Calcium/calmodulin-dependent protein kinase type II subunit delta ; CAMK2D ; Q13557, sequence (Q13557 whole entry, one chain of several): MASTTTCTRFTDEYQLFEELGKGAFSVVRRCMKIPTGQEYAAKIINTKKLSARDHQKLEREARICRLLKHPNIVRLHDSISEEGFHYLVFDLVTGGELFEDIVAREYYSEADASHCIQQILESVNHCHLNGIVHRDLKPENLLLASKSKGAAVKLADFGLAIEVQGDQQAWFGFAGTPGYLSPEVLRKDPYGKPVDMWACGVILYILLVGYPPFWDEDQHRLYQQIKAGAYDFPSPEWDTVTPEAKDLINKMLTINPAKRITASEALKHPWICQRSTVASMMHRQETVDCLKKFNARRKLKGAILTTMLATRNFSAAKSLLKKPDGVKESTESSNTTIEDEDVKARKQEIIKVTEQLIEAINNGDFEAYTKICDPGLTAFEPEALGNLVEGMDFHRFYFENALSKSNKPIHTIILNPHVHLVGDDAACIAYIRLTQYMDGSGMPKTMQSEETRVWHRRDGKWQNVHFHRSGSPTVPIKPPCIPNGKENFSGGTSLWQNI

How did the remaining activity at 10 µM [1, 22] turn out when `COc1cc(F)ccc1-c1ncnc(Nc2cccc(C[S@](C)(=N)=O)c2)n1` [BAY-1143572] was run?
Its remaining activity at 10 µM is 80.7%.

And the remaining activity at 10 µM [2, 22]?
The remaining activity at 10 µM was 110%.

And the remaining activity at 10 µM [3, 22]?
Its remaining activity at 10 µM is 106%.

And the remaining activity at 10 µM [4, 22]?
Its remaining activity at 10 µM is 99.5%.

What about the remaining activity at 10 µM [5, 22] of the same compound?
Its remaining activity at 10 µM is 128%.

And the remaining activity at 10 µM [6, 22]?
Its remaining activity at 10 µM is 94.4%.

What about the remaining activity at 10 µM [7, 22] of the same compound?
The remaining activity at 10 µM was 80%.

And the remaining activity at 10 µM [8, 22]?
The remaining activity at 10 µM was 137%.

And the remaining activity at 10 µM [9, 22]?
Its remaining activity at 10 µM is 133%.

What about the remaining activity at 10 µM [10, 22] of the same compound?
The remaining activity at 10 µM was 34.2%.

What about the remaining activity at 10 µM [11, 22] of the same compound?
Its remaining activity at 10 µM is 125%.

What about the remaining activity at 10 µM [12, 22] of the same compound?
Its remaining activity at 10 µM is 99.6%.

And the remaining activity at 10 µM [13, 22]?
The remaining activity at 10 µM was 88.7%.

What about the remaining activity at 10 µM [14, 22] of the same compound?
Its remaining activity at 10 µM is 191%.

What about the remaining activity at 10 µM [15, 22] of the same compound?
Its remaining activity at 10 µM is 70.5%.

What about the remaining activity at 10 µM [16, 22] of the same compound?
The remaining activity at 10 µM was 136%.

And the remaining activity at 10 µM [17, 22]?
Its remaining activity at 10 µM is 114%.

What about the remaining activity at 10 µM [18, 22] of the same compound?
Its remaining activity at 10 µM is 142%.

What about the remaining activity at 10 µM [19, 22] of the same compound?
The remaining activity at 10 µM was 120%.

What about the remaining activity at 10 µM [20, 22] of the same compound?
Its remaining activity at 10 µM is 111%.

And the remaining activity at 10 µM [21, 22]?
The remaining activity at 10 µM was 104%.

For `COc1cc(F)ccc1-c1cc(Nc2cc(CS(C)(=N)=O)ccn2)ncc1F` (stereo not drawn) [BAY-1251152], which remaining activity at 10 µM [1, 23] is on record?
Its remaining activity at 10 µM is 56%.

What about the remaining activity at 10 µM [2, 23] of the same compound?
Its remaining activity at 10 µM is 110%.

What about the remaining activity at 10 µM [3, 23] of the same compound?
Its remaining activity at 10 µM is 110%.

And the remaining activity at 10 µM [4, 23]?
Its remaining activity at 10 µM is 103%.

And the remaining activity at 10 µM [5, 23]?
Its remaining activity at 10 µM is 125%.

And the remaining activity at 10 µM [6, 23]?
The remaining activity at 10 µM was 90.9%.

What about the remaining activity at 10 µM [7, 23] of the same compound?
The remaining activity at 10 µM was 74.4%.

What about the remaining activity at 10 µM [8, 23] of the same compound?
Its remaining activity at 10 µM is 111%.

And the remaining activity at 10 µM [9, 23]?
Its remaining activity at 10 µM is 131%.

And the remaining activity at 10 µM [10, 23]?
Its remaining activity at 10 µM is 47.6%.

What about the remaining activity at 10 µM [11, 23] of the same compound?
Its remaining activity at 10 µM is 123%.

And the remaining activity at 10 µM [12, 23]?
Its remaining activity at 10 µM is 96.3%.

What about the remaining activity at 10 µM [13, 23] of the same compound?
The remaining activity at 10 µM was 112%.

And the remaining activity at 10 µM [14, 23]?
Its remaining activity at 10 µM is 147%.

What about the remaining activity at 10 µM [15, 23] of the same compound?
The remaining activity at 10 µM was 84.2%.

What about the remaining activity at 10 µM [16, 23] of the same compound?
Its remaining activity at 10 µM is 119%.

What about the remaining activity at 10 µM [17, 23] of the same compound?
Its remaining activity at 10 µM is 88.3%.

And the remaining activity at 10 µM [18, 23]?
The remaining activity at 10 µM was 131%.

And the remaining activity at 10 µM [19, 23]?
The remaining activity at 10 µM was 110%.

And the remaining activity at 10 µM [20, 23]?
The remaining activity at 10 µM was 84%.

What about the remaining activity at 10 µM [21, 23] of the same compound?
The remaining activity at 10 µM was 96.8%.
